Test results as given in patent US20230278972A1, “SUBSTITUTED HALOALKYL SULFONANILIDE HERBICIDES” (FMC Corporation, priority 2020, published 2023).

Tests used:
Format in all cases: in vivo
[1] = test system: corn (Zea mays); assay: Test A1 preemergence, corn
Outline: (§1)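 Test compounds were formulated in a non-phytotoxic solvent mixture containing a surfactant. For preemergence, seeds sown in a loam soil–sand blend received a directed soil spray. For postemergence, potted plants in the same soil, 2 to 10 cm tall at the one- to two-leaf stage, were sprayed.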

[2] = test system: Pigweed, Palmer (palmer amaranth, palmer pigweed, Amaranthus palmeri); assay: Test A1 preemergence, Pigweed, Palmer
Outline: as §1

[3] = test system: Foxtail, Giant (giant foxtail, Setaria faberi); assay: Test A1 postemergence, Foxtail, Giant; settings: for Foxtail, Giant plant response rating: postemergence; for Plant response rating, Foxtail, Giant: Postemergence
Outline: (§2)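 Both timings started from seed in a loam-sand blend. Preemergence pots got a directed soil application immediately; postemergence pots were sprayed when seedlings had one or two leaves and stood 2–10 cm. Each compound was prepared in a non-phytotoxic solvent plus surfactant.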

[4] = test system: galium (catchweed bedstraw, Galium aparine); assay: Test A1 postemergence, galium; settings: for Galium plant response rating: postemergence; for Plant response rating, Galium: Postemergence
Outline: as §2

[5] = test system: barnyardgrass (Echinochloa crus-galli); assay: Test B1 flooded paddy test, barnyardgrass; settings: 250 g ai/ha, Flood, applied to paddy water, 2-leaf stage, visually evaluated after 10 to 14 days
From the text: (§3) A dash (-) response means no test result.

[6] = test system: ducksalad (Heteranthera limosa); assay: Test B1 flooded paddy test, ducksalad; settings: 250 g ai/ha, Flood, applied to paddy water, 2-leaf stage, visually evaluated after 10 to 14 days
From the text: as §3

[7] = 31 g ai/ha, 0 to 100 scale (0 no effect, 100 complete control)
[8] = 125 g ai/ha, 0 to 100 scale, 0 no effect, 100 complete control
[9] = 125 g ai/ha, 0 to 100 scale (0 no effect, 100 complete control), 10 days
[10] = 31 g ai/ha, 0 to 100 scale (0 no effect, 100 complete control), 10 days

Cc1cc(C)c(N(COC(=O)C(C)(C)C)S(=O)(=O)C(F)(F)F)cc1N1CCC2(CCC(C(F)(F)F)CC2)C1=O (stereo not drawn) [Compound 403] was tested, and the “Plant response rating, Corn” value [1, 7] was 0, the “Plant response rating, Corn” value [1, 8] was 10 and the “Plant response rating, Pigweed, Palmer” value [2, 7] was 0. For the same compound, the “Plant response rating, Pigweed, Palmer” value [2, 8] was 0, the “Foxtail, Giant plant response rating” value [3, 7] was 0 and the “Plant response rating, Foxtail, Giant” value [3, 9] was 0. The “Galium plant response rating” value [4, 7] was 70, the “Plant response rating, Galium” value [4, 9] was 100 and the “Plant response rating, Barnyardgrass (0 to 100 scale, 0 is no effect, 100 is complete control)” value [5] was 0. The “Plant response rating, Ducksalad (0 to 100 scale, 0 is no effect, 100 is complete control)” value [6] was 15.
For Cc1c(C(=O)N2CCSCC2)cc(N(COC(=O)C(C)(C)C)S(=O)(=O)C(F)(F)F)c(C)c1C [Compound 285], the “Plant response rating, Corn” value [1, 7] was 0, the “Plant response rating, Corn” value [1, 8] was 10 and the “Plant response rating, Pigweed, Palmer” value [2, 7] was 10. For the same compound, the “Plant response rating, Pigweed, Palmer” value [2, 8] was 20, the “Plant response rating, Foxtail, Giant” value [3, 10] was 30 and the “Plant response rating, Foxtail, Giant” value ([3]; 125 g ai/ha, 0 to 100 scale) was 80. For the same compound, the “Plant response rating, Galium” value [4, 10] was 40, the “Plant response rating, Galium” value ([4]; 125 g ai/ha, 0 to 100 scale) was 80 and the “Plant response rating, Barnyardgrass (0 to 100 scale, 0 is no effect, 100 is complete control)” value [5] was 35. For the same compound, the “Plant response rating, Ducksalad (0 to 100 scale, 0 is no effect, 100 is complete control)” value [6] was 50.
CCOC(=O)N(c1cc(C(=O)N2CCSCC2)c(C)c(C)c1C)S(=O)(=O)C(F)(F)F [Compound 286] was tested, and the “Plant response rating, Corn” value [1, 7] was 0, the “Plant response rating, Corn” value [1, 8] was 0 and the “Plant response rating, Pigweed, Palmer” value [2, 7] was 50. The “Plant response rating, Pigweed, Palmer” value [2, 8] was 70, the “Plant response rating, Foxtail, Giant” value [3, 10] was 80 and the “Plant response rating, Foxtail, Giant” value ([3]; 125 g ai/ha, 0 to 100 scale) was 80. The “Plant response rating, Galium” value [4, 10] was 50, the “Plant response rating, Galium” value ([4]; 125 g ai/ha, 0 to 100 scale) was 80 and the “Plant response rating, Barnyardgrass (0 to 100 scale, 0 is no effect, 100 is complete control)” value [5] was 15. For the same compound, the “Plant response rating, Ducksalad (0 to 100 scale, 0 is no effect, 100 is complete control)” value [6] was 50.
CCOC(=O)N(c1cc(C(=O)N2C[C@@H](C)O[C@H](C)C2)c(C)c(C)c1C)S(=O)(=O)C(F)(F)F (relative stereo) [Compound 374] was tested, and the “Plant response rating, Corn” value [1, 7] was 20, the “Plant response rating, Corn” value [1, 8] was 40 and the “Plant response rating, Pigweed, Palmer” value [2, 7] was 60. The “Plant response rating, Pigweed, Palmer” value [2, 8] was 80, the “Foxtail, Giant plant response rating” value [3, 7] was 0 and the “Plant response rating, Foxtail, Giant” value ([3]; 125 g ai/ha, 0 to 100 scale) was 80. The “Galium plant response rating” value [4, 7] was 60, the “Plant response rating, Galium” value ([4]; 125 g ai/ha, 0 to 100 scale) was 80 and the “Plant response rating, Barnyardgrass (0 to 100 scale, 0 is no effect, 100 is complete control)” value [5] was 40. The “Plant response rating, Ducksalad (0 to 100 scale, 0 is no effect, 100 is complete control)” value [6] was 85.
In the case of Cc1cc(C)c(N(COC(=O)C(C)(C)C)S(=O)(=O)C(F)(F)F)cc1C1=NOC(C(C)C)C1 (stereo not drawn) [Compound 383], the “Plant response rating, Corn” value [1, 7] is reported as 0, the “Plant response rating, Corn” value [1, 8] is reported as 0 and the “Plant response rating, Pigweed, Palmer” value [2, 7] is reported as 0. The “Plant response rating, Pigweed, Palmer” value [2, 8] was 0, the “Foxtail, Giant plant response rating” value [3, 7] was 0 and the “Plant response rating, Foxtail, Giant” value [3, 9] was 60. For the same compound, the “Galium plant response rating” value [4, 7] was 0, the “Plant response rating, Galium” value [4, 9] was 60 and the “Plant response rating, Barnyardgrass (0 to 100 scale, 0 is no effect, 100 is complete control)” value [5] was 98. The “Plant response rating, Ducksalad (0 to 100 scale, 0 is no effect, 100 is complete control)” value [6] was 25.
With CCc1cc(C)c(N(COC(=O)C(C)(C)C)S(=O)(=O)C(F)(F)F)cc1C1=NOC2CCCC12 (stereo not drawn) [Compound 378] the “Plant response rating, Corn” value [1, 7] was 0, the “Plant response rating, Corn” value [1, 8] was 0 and the “Plant response rating, Pigweed, Palmer” value [2, 7] was 0. The “Plant response rating, Pigweed, Palmer” value [2, 8] was 20, the “Foxtail, Giant plant response rating” value [3, 7] was 0 and the “Plant response rating, Foxtail, Giant” value ([3]; 125 g ai/ha, 0 to 100 scale) was 10. For the same compound, the “Galium plant response rating” value [4, 7] was 20, the “Plant response rating, Galium” value ([4]; 125 g ai/ha, 0 to 100 scale) was 40 and the “Plant response rating, Barnyardgrass (0 to 100 scale, 0 is no effect, 100 is complete control)” value [5] was 95. For the same compound, the “Plant response rating, Ducksalad (0 to 100 scale, 0 is no effect, 100 is complete control)” value [6] was 20.
With C#CCN(C)C(=O)c1cc(N(COC(=O)C(C)(C)C)S(=O)(=O)C(F)(F)F)c(C)c(C)c1C [Compound 371] the “Plant response rating, Corn” value [1, 7] was 0, the “Plant response rating, Corn” value [1, 8] was 90 and the “Plant response rating, Pigweed, Palmer” value [2, 7] was 10. For the same compound, the “Plant response rating, Pigweed, Palmer” value [2, 8] was 80, the “Foxtail, Giant plant response rating” value [3, 7] was 90 and the “Plant response rating, Foxtail, Giant” value ([3]; 125 g ai/ha, 0 to 100 scale) was 90. The “Galium plant response rating” value [4, 7] was 70, the “Plant response rating, Galium” value ([4]; 125 g ai/ha, 0 to 100 scale) was 100 and the “Plant response rating, Barnyardgrass (0 to 100 scale, 0 is no effect, 100 is complete control)” value [5] was 95. For the same compound, the “Plant response rating, Ducksalad (0 to 100 scale, 0 is no effect, 100 is complete control)” value [6] was 55.
With Cc1c(NS(=O)(=O)C(F)(F)F)cc(C(=O)N2CCC(C)CC2)c(C)c1C [Compound 366] the “Plant response rating, Corn” value [1, 7] was 0, the “Plant response rating, Corn” value [1, 8] was 10 and the “Plant response rating, Pigweed, Palmer” value [2, 7] was 100. The “Plant response rating, Pigweed, Palmer” value [2, 8] was 100, the “Foxtail, Giant plant response rating” value [3, 7] was 30 and the “Plant response rating, Foxtail, Giant” value ([3]; 125 g ai/ha, 0 to 100 scale) was 80. The “Galium plant response rating” value [4, 7] was 50, the “Plant response rating, Galium” value ([4]; 125 g ai/ha, 0 to 100 scale) was 100 and the “Plant response rating, Barnyardgrass (0 to 100 scale, 0 is no effect, 100 is complete control)” value [5] was 15. For the same compound, the “Plant response rating, Ducksalad (0 to 100 scale, 0 is no effect, 100 is complete control)” value [6] was 65.
In the case of Cc1cc(C)c(C2=NOC(C(C)C)C2)cc1NS(=O)(=O)C(F)(F)F (stereo not drawn) [Compound 381], the “Plant response rating, Corn” value [1, 7] is reported as 0, the “Plant response rating, Corn” value [1, 8] is reported as 70 and the “Plant response rating, Pigweed, Palmer” value [2, 7] is reported as 30. For the same compound, the “Plant response rating, Pigweed, Palmer” value [2, 8] was 90, the “Foxtail, Giant plant response rating” value [3, 7] was 0 and the “Plant response rating, Foxtail, Giant” value [3, 9] was 50. The “Galium plant response rating” value [4, 7] was 0, the “Plant response rating, Galium” value [4, 9] was 50 and the “Plant response rating, Barnyardgrass (0 to 100 scale, 0 is no effect, 100 is complete control)” value [5] was 70. The “Plant response rating, Ducksalad (0 to 100 scale, 0 is no effect, 100 is complete control)” value [6] was 50.
